What was measured:
Nqo1 [1] = assay: Nqo1 transcript levels in mouse organs after oral gavage; format: in vivo; details: mice, particularly digestive tract
Description: The RNeasy Mini Kit (Qiagen) was used to collect total RNA from cells, while for mouse tissue, TRIzol reagent (Invitrogen) was used. In each case, total RNAs (2 μg) were reverse-transcribed into cDNAs, which were used as templates for TaqMan gene expression assay (Applied Biosystems) and detected using the 7300 Real-Time PCR System (Applied Biosystems). Each qPCR sample was tested in triplicate as a 25 μL total reaction volume (12.5 μL of Taqman 2× universal master mix, 1.25 μL of a 20× TaqMan gene expression assay probe, 1 μL of the above cDNA, and 10.25 μL of RNase-free sterile water). The qPCR method was designed as following: 50° C. for 2 min, 95° C. for 10 min, and 40 cycles of 95° C. for 15 s and 60° C. for 1 min. Endogenous controls used included GAPDH for IMR-32 cells and β-actin to normalize for RAW264.7 cells and mouse tissues.
The experiments were approved by the Institutional Animal Care & Use Committee at the University of Florida. Groups of 5-10 wild type male mice (C57BL/6J) were used for each treatment type. The mice were maintained under approved standard conditions. […] The tissues were harvested immediately, frozen on dry ice, and kept at −80° C. until analyzed.
A low dose and a high dose of cymopol (1) or the NP extract were administered to 4-week-old male mice via oral gavage.

NQO1 [2] = assay: Immunoblot of NQO1 after NAC pre-treatment in IMR-32 cells; format: cell-based, human; details: pre-treated with N-acetylcysteine
Description: IMR-32 cells were seeded into 6-well plates (7×10^5 cells/well) and incubated at 37° C. for 24 h. The cells were then treated with a solvent control (DMSO, 1%, v/v), isolated compounds, or extracts. After 24 h, cells were lysed in 200 μL of PhosphoSafe buffer (Novagen). Protein concentrations were measured by using a BCA assay kit (Pierce). Equal amounts of total protein were separated using SDS-PAGE (NuPAGE® Novex® 4-12% Bis-Tris Mini gels, Invitrogen) and transferred onto a PVDF membrane. Membranes were blocked overnight with 5% BSA at 4° C. and incubated with indicated primary antibodies for 2 h at room temperature. After washing, the membranes were then incubated with the corresponding secondary antibodies (HRP-linked) for 1 h at room temperature and detected with Supersignal Femto Western Blotting kit (Pierce). For assays in the presence of N-acetylcysteine (NAC), the cells were pretreated with the antioxidant (NAC at 1 mM) for 2 h prior to treatment with the solvent control, isolated compounds, or extracts.

CC(C)=CCC/C(C)=C/Cc1cc(O)c(Br)cc1O [Compound 1, (E)-2-bromo-5-(3,7-dimethylocta-2,6-dien-1-yl)benzene-1,4-diol]
transcript levels of Nqo1 in various organs (Nqo1 [1]): elevated transcript levels of Nqo1 | translation of NQO1 after NAC pre-treatment (NQO1 [2]): still able to induce the translation of NQO1
